Reference: patent publication US12157713B2, “Conjugated oligoelectrolytes as antimicrobial agents” (Nanyang Technological University, priority 2018, dated 2024)
Values joined by “and” are separate entries in the source; they are usually repeats but may differ in a detail not shown here. Identical values can stand only once. Like-named read-outs stand apart in the source and are kept apart here.

How the values were obtained:
E. coli K12 [1] = test: Cellular uptake by E. coli K12 (absorption spectroscopy); assay type: cell-based, Escherichia coli; details: for Uptake by E. coli K12: 10 μg/mL COE in PBS, OD=0.5, 2 hrs, room temperature; for Uptake by E. coli K12 at 4° C.: 10 μg/mL COE, 2 hrs, 4° C. (below membrane phase transition temperature)
Description: The relative membrane affinity of COE-D4, COE-D6 and COE-D8 was estimated from the quantity taken up by cells using absorption spectroscopy. After cultures of E. coli K12 were grown in MHB at 37° C., the cells were harvested by centrifugation (6000 rpm, 5 min) and washed twice with PBS solution (pH=7.2). The cells were then resuspended in PBS and with the density adjusted to OD=1.0. Thereafter, 5 mL of this cell suspension was mixed with an equal volume of 20 μg/mL of COE in PBS to achieve a final concentration of 10 μg/mL (in triplicates). After exposure to COEs for 2 hrs at room temperature and with shaking (200 rpm), the cells were removed by centrifugation and the supernatant was collected for absorbance scans to quantify the remaining COE in the supernatant. The uptake quantity was estimated by comparing the absorbance of the supernatant to the corresponding control COE solution (i.e. 10 μg/mL in PBS). The procedure for uptake measurements at the lower temperature is similar to the one described above, but with the exposure to COEs and centrifugation occurring at 4° C. instead of room temperature
The effect of molecular structures of the COEs on relative membrane affinity, estimated from the amount taken up by E. coli K12, was measured by absorption spectroscopy (FIG. 8a-c). These experiments utilised cell suspensions (OD=0.5) incubated for 2 hrs with 10 μg mL^−1 of various COE. Cells were removed by centrifugation, and the amount of uncomplexed COE was determined from the optical absorption spectra. The longest molecule, COE-D8, achieved the highest uptake in bacteria (72%). In contrast, only 3% of COE-D4 was absorbed while the uptake for COE-D6 was 16% (Table 1a).
Parallel experiments were carried out at 4° C. […] As a result of the reduced fluidity of cellular membrane at lower temperature, the uptake decreased to around 1% for COE-D4, 5% for COE-D6, and 34% for COE-D8.

[2] = test system: Cryptococcus neoformans var. grubii H99; ATCC 208821; test: Single-dose growth inhibition, Cn; assay type: cell-based
Description: Growth inhibition of C. albicans was determined by measuring the absorbance at 530 nm (OD530), while the growth inhibition of C. neoformans was determined by measuring the difference in absorbance between 600 and 570 nm (OD600-570), after the addition of resazurin (0.001 wt. % final concentration) and incubation at 35° C. for additional 2 hrs. The absorbance was measured using a Biotek Synergy HTX plate reader. The relative growth inhibition was calculated for each well, relative to that determined from a negative control (media only) and positive control (bacteria without inhibitors) on the same plate as references. A single dose of 32 μg/mL of COE (final concentration) was used for each test.
Percentage growth inhibition of an individual sample was calculated based on growth in a reference well determined from negative controls (media only) and positive controls (bacterial/fungal media without inhibitors). Negative inhibition values indicate that the growth rate (or OD600) is higher compared to the reference growth (bacteria/fungi only, set to 0% inhibition). The growth rates for all bacteria and fungi may vary at −/+10%, which were within the reported normal distribution of bacterial/fungal growth. Any significant variations (or outliers/hits) were identified by the modified Z-Score, and the active compounds were selected by a combination of inhibition values and Z-Score.
A M(i) value of >|2.5| (absolute) would classify the sample as outliers or hits. Active samples were denoted as compounds with inhibition values equal to or above 80% and absolute Z-Score above |2.5| for either replicate (n=2 on different plates). Partial active samples were denoted as compounds with inhibition values from 50% to <80%, or absolute Z-Score below |2.5|.

E. coli K12 [3] = test: MIC by broth microdilution against E. coli K12; assay type: cell-based; details: Escherichia coli
Description: The respective minimum inhibition concentration (MIC) of each COE molecule was determined using a broth microdilution method. Briefly, COEs were diluted via a 2-fold dilution series in 100 μL of either Muller Hinton Broth (MHB) for E. coli and S. aureus or Brain Heart Infusion Broth (BHI) for E. faecalis in a 96-well plate to achieve the desired final concentration. Subsequently, each well was inoculated with 100 μL of 1×10^6 colony forming units (CFU) mL^−1 of the respective microorganism in MHB for E. coli or BHI for E. faecalis to achieve an inoculum density of 5×10^5 CFU mL^−1. The plates were then incubated at 37° C. with shaking (200 rpm) for 18 hrs. […] The results were obtained in triplicate.
The MIC values of COE-D4, COE-D6 and COE-D8 against the reference strain E. coli K12, pathogenic E. coli UT189, and the Gram positive pathogen Enterococcus faecalis OG1RF were determined using a broth microdilution method as described in the general method above. The MICs for E. coli K12 were determined to be 128, 16, and 4 μg mL^−1 for COE-D4, COE-D6, and COE-D8, respectively (FIG. 5a). […] This is not surprising as these two organisms differ in the capsular polysaccharides that they expressed, which are known to hinder the uptake of antimicrobials and mitigate their potency (M. A. Campos, et al., Infect. Immun. 2004, 72, 7107-7114). A K-type capsid comprising α2-8-linked sialic acid is excreted by UT189 and is known to be an important virulence factor for this organism (C. Whitfield, et al., Mol. Microbiol. 1999, 31, 1307-1319; G. G. Anderson, et al., Infect. Immun. 2010, 78, 963-975).

[4] = ATCC208821, read-out: Growth inhibition Cn
[5] = K12, 18 h, read-out: MIC against E. coli K12
[6] = K12, read-out: MIC against E. coli K12
[7] = K12, read-out: MICeff (MIC×U %)
[8] = ATCC208821, 32 μg/mL single dose, n=2, read-out: Growth inhibition Cn
[9] = K12, broth microdilution, MHB, 18 hrs, read-out: MIC against E. coli K12

| SMILES | Uptake by E. coli K12 (E. coli K12 [1]) | Uptake by E. coli K12 at 4° C. (E. coli K12 [1]) | inhibition at 32 µg/mL [2, 4] | MIC (E. coli K12 [3]; [5]) | MIC (E. coli K12 [3]; [6]) | MIC (E. coli K12 [3]; [7]) | Cell affinity relative to COE-D4 (E. coli K12 [1]; E. coli K12) | inhibition at 32 µg/mL [2, 8] | MIC (E. coli K12 [3]; [9]) |
| --- | --- | --- | --- | --- | --- | --- | --- | --- | --- |
| C[N+](C)(C)CCCCOc1ccc(/C=C/c2ccc(OCCCC[N+](C)(C)C)cc2)cc1 [COE-D4] | 3% and 3 ± 2% | around 1% | > 80% | 128 µg/mL | 128 µg/mL | 3.8 µg/mL |  |  |  |
| C[N+](C)(C)CCCCCCOc1ccc(/C=C/c2ccc(OCCCCCC[N+](C)(C)C)cc2)cc1 [COE-D6] | 16% and 16 ± 3% | ~5% | > 80% | 16 µg/mL | 16 µg/mL | 2.6 µg/mL |  |  |  |
| C[N+](C)(C)CCCCCCCCOc1ccc(/C=C/c2ccc(OCCCCCCCC[N+](C)(C)C)cc2)cc1 [COE-D8] | 72% and 72 ± 5% | ~34% | > 80% | 4 µg/mL | 4 µg/mL | 2.9 µg/mL | 30 times |  |  |
| CN(C)CC[N+](C)(C)CCCCCCOc1ccc(/C=C/c2ccc(OCCCCCC[N+](C)(C)CCN(C)C)cc2)cc1 [COE-D62N] | 11±2% |  |  |  |  |  |  | > 80% | 8 µg/mL |
| CN(C)CC[N+](C)(C)CCCCCCCCOc1ccc(/C=C/c2ccc(OCCCCCCCC[N+](C)(C)CCN(C)C)cc2)cc1 [COE-D82N] | 76±3% |  |  |  |  |  |  | > 80% | 8 µg/mL |
